Assay results from PMC2918672 (Journal of molecular biology, 2010).
Square brackets hold non-standard residues; d marks the D form. Ends that are not written are not given here. Sta = CC(C)C[C@H](N)[C@@H](O)CC(=O)O

System: L40I mutant HTLV-1 PR
Test: Inhibition of L40I mutant HTLV-1 PR, fluorescent substrate cleavage
Assay type: biochemical, Human T-cell leukemia virus type 1 (HTLV-1)
Conditions: test compound 50 nM; L40I mutant HTLV-1 PR 1 μg in 50 μL reaction mixture (as a dimer); substrate H-Lys([7-methoxycoumarin-4-yl]acetyl)-APQVL-(p-nitrophenylalanine)-VMHPL-OH; inverse percentage of remaining activity; single determination

## Ac-APQV[Sta]VMHP [Statine Inhibitor]
  Percent inhibition (%) at 50 nM: 19%
